In patent publication US10239957B2, “Peptide containing conjugates for dual molecular delivery of oligonucleotides” (Merck Sharp & Dohme Corp., priority 2013, dated 2019):
Where no end group is shown, it is not given here. [ ]: non-standard residue; d: D form. TGN = not defined here

Experiments:
CTNNB1 [1] = assay: In vitro DMD assay: mRNA silencing enhancement by peptide conjugates after siRNA-IV treatment; format: cell-based; settings: primary mouse hepatocytes, siRNA-IV 125 nM baseline
Outline: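 RT-qPCR read-out, PPIB-normalized (dddCt), gave silencing enhancement versus 125 nM siRNA-IV alone and untreated cells. Beforehand, cultured primary mouse hepatocytes received siRNA-IV for 1 h, then graded peptide-conjugate doses for ~16 h, followed by washout and a further 24 h incubation.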

CTNNB1 [2] = assay: In vivo evaluation in mice: liver mRNA knockdown measurement; settings: mice
Experimental: Female CD-1 mice (Charles River) were injected in accordance with either a sequential dosing paradigm or a co-dosing paradigm. In the sequential dosing paradigm, the targeted siRNA (SCE) is dosed at t=0 and the targeted peptide is separately dosed up to 2 hr before the SCE (−2 hr) or up to 24 hr after the SCE (+24 hr). In the co-dosing paradigm, the SCE and peptides are co-formulated and dosed together in the same formulation as a single injection at t=0. The mice were dosed either by intravenous (i.v.) or subcutaneous (s.c.) injection of SCE and peptide. For the i.v. doses, the compounds were injected into the tail vein of the mice. For the s.c. doses, the compounds were injected in the subcutaneous space on the back of the mouse between the shoulder blades. At the indicated harvest times (measured from t=0 when the siRNA was dosed, regardless of when the peptide was dosed), the animals were sacrificed and 3 mm liver punches were collected, preserved in RNAlater (Ambion), and stored at 4° C. Separate 5 mm liver punches were collected, placed in 96-well plates, frozen on dry ice, and stored at −80° C. until use.
The 3 mm liver punches were removed from RNAlater and homogenized in Trizol (Invitrogen) using a bead mill tissue lyser (Qiagen); disruption was performed for two 5-minute cycles at 30 Hz. RNA extraction was performed using 1-bromo-2-chloropropane (Acros Organics) and total RNA was isolated from the aqueous phase using the MagMax RNA isolation method (Ambion). […] TaqMan qPCR analysis was performed with an ABI 7900 Real-Time PCR System using TaqMan Fast Advanced Master Mix (Applied Biosystems). All TaqMan probes and primers for CTNNB1 and PPIB (housekeeping gene) were purchased from Applied Biosystems as pre-validated gene expression assays. Results are calculated by the comparative Ct method, where the difference between the CTNNB1 Ct value and the PPIB Ct value (ΔCt) is calculated and then further normalized relative to the PBS control by taking a second difference (ΔΔCt), as described previously (1).

[3] = TGN-L-siRNA-III 0.25 mg/kg IV, peptide 10 mg/kg IV 15 min after siRNA
[4] = TGN-L-siRNA-II 0.25 mg/kg IV, peptide 3 mg/kg IV 15 min after siRNA

Row | Substance | In vitro dddCt (vs. baseline SCE dose) (CTNNB1 [1]; Targeted peptide dose 15625 nM) | In vivo mRNA knockdown (CTNNB1 [2]; [3]) [%] | In vitro dddCt (vs. baseline SCE dose) (CTNNB1 [1]; Targeted peptide dose 625 nM) | In vitro dddCt (vs. baseline SCE dose) (CTNNB1 [1]; Targeted peptide dose 3125 nM) | also measured
1 | TGN-S-S-SEQ ID NO: 1631 (D) ([dC]G[dL][dF]G[dH][dI][dH][dH][dL][dI][dH][dH]G[dL][dH][dN][dL][dI][dD][dW][dW][dN]G; not fully specified (residue 1); also: TGN attached via disulfide; listed as Homo sapiens) | −2.11 | 17 | – | – | –
2 | TGN-S-S-SEQ ID NO: 1632 (D) ([dC]G[dL][dF]G[dE][dI][dH][dH][dL][dI][dH][dH]G[dL][dH][dN][dL][dI][dD][dW][dW][dN]G; not fully specified (residue 1); also: TGN attached via disulfide; listed as Homo sapiens) | −0.47 | 36 | −0.44 | −0.19 | In vitro dddCt (vs. baseline SCE dose) (CTNNB1 [1]; Targeted peptide dose 125 nM): −0.29
3 | TGN-S-S-SEQ ID NO: 1633 (D) ([dC]G[dL][dF]G[dE][dI][dH][dH][dL][dI][dH][dH]G[dL][dE][dN][dL][dI][dD][dW][dW][dN]G; not fully specified (residue 1); also: TGN attached via disulfide; listed as Homo sapiens) | – | 55 | −0.2 | −0.2 | In vitro dddCt (vs. baseline SCE dose) (CTNNB1 [1]; Targeted peptide dose 25 nM): −0.33
4 | TGN-S-S-SEQ ID NO: 1634 (D) ([dC]G[dL][dF]G[dE][dI][dH][dE][dL][dI][dH][dH]G[dL][dE][dN][dL][dI][dD][dW][dW][dN]G; not fully specified (residue 1); also: TGN attached via disulfide; listed as Homo sapiens) | −0.74 | 17 | −0.41 | −0.3 | In vitro dddCt (vs. baseline SCE dose) (CTNNB1 [1]; Targeted peptide dose 125 nM): −0.3
5 | TGN-S-S-SEQ ID NO: 1651 (D) ([dC]G[dL][dF][dE][dE][dI][dA][dE][dL][dI][dE][dE]G[dL][dE][dN][dL][dI][dD][dW]G[dN]G; not fully specified (residue 1); also: TGN attached via disulfide; listed as Homo sapiens) | −1.48 | 49 | −1.11 | −1.55 | In vitro dddCt (vs. baseline SCE dose) (CTNNB1 [1]; Targeted peptide dose 125 nM): −0.84
6 | TGN-S-S-SEQ ID NO: 1652 (D) ([dC][dE][dL][dF][dE][dE][dL][dA][dE][dL][dL][dW][dE]G[dL][dE][dN][dL][dI][dD][dW]G[dN][dS]; not fully specified (residue 1); also: TGN attached via disulfide; listed as Homo sapiens) | −2.03 | 37 | −1.5 | −1.6 | In vitro dddCt (vs. baseline SCE dose) (CTNNB1 [1]; Targeted peptide dose 125 nM): −1.27
7 | TGN-S-S-SEQ ID NO: 1726(D): TGN-S-S-peptide; peptide CGLFAVIKKVASVIGGL ([dC]G[dL][dF][dA][dV][dI][dK][dK][dV][dA][dS][dV][dI]GG[dL]; not fully specified (residue 1); also: TGN attached via disulfide; listed as Homo sapiens) | – | 23 | – | – | –
8 | TGN-S-S-SEQ ID NO: 1727 (D): TGN-S-S-peptide; peptide CGLFAVIHHVASVIGGL ([dC]G[dL][dF][dA][dV][dI][dH][dH][dV][dA][dS][dV][dI]GG[dL]; not fully specified (residue 1); also: TGN attached via disulfide; listed as Homo sapiens) | – | 26 | – | – | –
9 | TGN-S-S-SEQ ID NO: 1728(D): TGN-S-S-peptide; peptide CGLFAVIEEVASVIGGL ([dC]G[dL][dF][dA][dV][dI][dE][dE][dV][dA][dS][dV][dI]GG[dL]; not fully specified (residue 1); also: disulfide to TGN peptide via Cys1; listed as Homo sapiens) | – | 23 | – | – | –
10 | TGN-S-S-SEQ ID NO: 1729 (L) (C(TGN)GPSQPTYPGDDAPVRDLIRFYRDLRRYLNVVTRHRY; reading uncertain; also: TGN linked to Cys via disulfide, TGN not defined; listed as Homo sapiens) | – | 10 | – | – | –
11 | TGN-S-S-SEQ ID NO: 1740 (D): TGN-S-S-peptide; peptide GLFEAIEGFIENGWEGLAELAEALEALAAGGSC (G[dL][dF][dE][dA][dI][dE]G[dF][dI][dE][dN]G[dW][dE]G[dL][dA][dE][dL][dA][dE][dA][dL][dE][dA][dL][dA][dA]GG[dS][dC]; not fully specified (residue 33); also: disulfide to TGN peptide via Cys33; listed as Homo sapiens) | – | – | – | – | In vivo mRNA knockdown (CTNNB1 [2]; TGN-L-siRNA-II 0.25 mg/kg IV, peptide 1 mg/kg IV 15 min after siRNA): 23%; In vivo mRNA knockdown (CTNNB1 [2]; [4]): 42%
12 | TGN-S-S-SEQ ID NO: 1741(L): TGN-S-S-peptide; peptide GLFGALAEALAEALAEHLAEALAEALEALAAGGSC (GLFGALAEALAEALAEHLAEALAEALEALAAGGSC(TGN); reading uncertain; also: TGN linked to Cys via disulfide, TGN not defined; listed as Homo sapiens) | – | – | – | – | In vivo mRNA knockdown (CTNNB1 [2]; [4]): 24%
13 | TGN-S-S-SEQ ID NO: 1744 (D) ([dC][dE][dE][dN][dW][dI]G[dL][dF]GGG[dN][dI][dW][dE][dE][dE][dE][dI][dL][dD][dL][dL]; not fully specified (residue 1); also: disulfide to TGN peptide via Cys1; listed as Homo sapiens) | – | – | – | – | In vivo mRNA knockdown (CTNNB1 [2]; TGN-L-siRNA-III 0.5 mg/kg IV, peptide 2 mg/kg IV 15 min after siRNA): 28%; In vivo mRNA knockdown (CTNNB1 [2]; TGN-L-siRNA-III 0.5 mg/kg IV, peptide 10 mg/kg IV 15 min after siRNA): 33%
14 | siRNA-IV: CTNNB1 siRNA; passenger SEQ ID NO 1807 (clickA, 5Chol), guide SEQ ID NO 1806 (sense CUGUUGGAUUGAUUCGAAAUU; guide TUUCGAAUCAAUCCAACAGUU; click A, 5' cholesterol; vinylphosphonate MOE T; (1)..(1) aminohexyl phosphate inverted abasic cap; (1)..(2) 2′-O-methyl; (3)..(3) 2′-deoxy-2′-fluoro; (4)..(5) 2′-O-methyl; (6)..(8) 2′-deoxy-2′-fluoro; (9)..(10) 2′-O-methyl; (11)..(12) 2′-deoxy-2′-fluoro; (13)..(15) 2′-O-methyl; (16)..(16) 2′-deoxy-2′-fluoro; (17)..(17) 2′ propagyl; (18)..(19) 2′-deoxy-2′-fluoro; (20)..(21) 2′-O-methyl; (20)..(21) phosphorothioate internucleotide linkage; (21)..; (1)..(1) terminal vinyl phosphate; (1)..(1) 2′-methoxyethoxy; (2)..(21) ribonucleotide unmodified or modified as described for this sequence; …) | – | – | – | – | In vivo mRNA knockdown (CTNNB1 [2]; targeted siRNA alone 0.5 mg/kg IV, peptide dose 0): 25%; In vivo mRNA knockdown (CTNNB1 [2]; targeted siRNA alone 2 mg/kg IV, peptide dose 0): 25%; In vivo mRNA knockdown (CTNNB1 [2]; targeted siRNA alone 5 mg/kg IV, peptide dose 0): 35%
